Earlier results as cited in patent US20030199496A1, “Pharmaceutical compositions containing alpha3beta4 nicotinic receptor antagonists and methods of their use” (priority 2002, published 2003).

Tested on: Purkinje nerve cells

For COCC[C@H]1CC2CN3CCc4c([nH]c5ccccc45)[C@](C(=O)OC)(C2)[C@H]13 [18-MC, 18-methoxycoronaridine], the “neurotoxicity, especially on Purkinje nerve cells” value (at certain doses) is listed as “devoid of these undesirable characteristics” and the tremors (human and animal subjects) is listed as “devoid of these undesirable characteristics”.
